Experimental data: US10065941B2, “Aminotriazine derivative and pharmaceutical composition comprising the same” (Shionogi & Co., Ltd., priority 2013, dated 2018)

Target: human P2X3 receptor (Homo sapiens (Human), UniProt P56373)
Test: Evaluation of human P2X3 receptor inhibitory activity (Test Example 1)
Type: cell-based
Details: C6BU-1 cell transfected with human P2X3 receptor gene, FLIPR 384
Outline: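 C6BU-1 cells stably expressing human P2X3, loaded with 4 μM Fluo-3-AM 1 h at 37 °C, preincubated 5 min with test compound, then stimulated with 150 nM ATP solution (stock, pre-dispense) and monitored by FLIPR for 4 min. IC50 derived from maximum fluorescence ratio (post-ATP peak over baseline).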

Chain of human P2X3 receptor (P56373 whole entry): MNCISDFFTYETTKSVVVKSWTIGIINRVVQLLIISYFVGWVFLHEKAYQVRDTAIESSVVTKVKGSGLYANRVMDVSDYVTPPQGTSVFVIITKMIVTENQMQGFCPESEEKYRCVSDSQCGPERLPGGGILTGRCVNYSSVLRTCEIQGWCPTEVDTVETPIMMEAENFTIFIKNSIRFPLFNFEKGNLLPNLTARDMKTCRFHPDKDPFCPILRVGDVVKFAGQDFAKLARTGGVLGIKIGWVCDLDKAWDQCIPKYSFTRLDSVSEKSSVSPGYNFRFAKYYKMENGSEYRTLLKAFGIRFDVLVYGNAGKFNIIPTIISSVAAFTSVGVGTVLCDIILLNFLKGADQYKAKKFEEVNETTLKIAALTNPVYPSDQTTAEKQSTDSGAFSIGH

Row | Structure (SMILES) | IC50
1 | COC(=O)C(C)(C)Cn1c(=O)[nH]/c(=N\c2ccc(Oc3ccnc(C)n3)cc2)n(Cc2ccc(Cl)cc2)c1=O [Compound R-043] | 5 nM
2 | Cc1nccc(Oc2ccc(/N=c3\[nH]c(=O)n(C[C@H](C)C(=O)O)c(=O)n3Cc3ccc(Cl)cc3)cc2)n1 [Compound R-044] | 10 nM
3 | Cc1nccc(Oc2ccc(/N=c3\[nH]c(=O)n(CC(C)(C)C(=O)O)c(=O)n3Cc3ccc(Cl)cc3)cc2)n1 [Compound R-045] | 14 nM
4 | COC(=O)[C@@H](C)Cn1c(=O)[nH]/c(=N\c2ccc(Oc3cc(Cl)ncn3)cc2)n(Cc2ccc(Cl)cc2)c1=O [Compound R-046] | 6 nM
5 | COC(=O)C(C)(C)Cn1c(=O)[nH]/c(=N\c2ccc(Oc3cc(Cl)ncn3)cc2)n(Cc2ccc(Cl)cc2)c1=O [Compound R-047] | 9 nM
6 | COC(=O)[C@@H](C)Cn1c(=O)[nH]/c(=N\c2ccc(Oc3cnccn3)c(F)c2)n(Cc2ccc(Cl)cc2)c1=O [Compound R-048] | 6 nM
7 | COC(=O)C(C)(C)Cn1c(=O)[nH]/c(=N\c2ccc(Oc3cnccn3)c(F)c2)n(Cc2ccc(Cl)cc2)c1=O [Compound R-049] | 8 nM
8 | COc1cc(Oc2ccc(/N=c3\[nH]c(=O)n(C[C@H](C)C(=O)O)c(=O)n3Cc3ccc(Cl)cc3)cc2)ncn1 [Compound R-050] | 14 nM
9 | CCOC(=O)c1cnc(Oc2ccc(/N=c3\[nH]c(=O)n(CC)c(=O)n3Cc3ccc(Cl)cc3)cc2)cc1Cl [Compound R-053] | 52 nM
10 | CCn1c(=O)[nH]/c(=N\c2ccc(Oc3cc(Cl)c(C(=O)O)cn3)cc2)n(Cc2ccc(Cl)cc2)c1=O [Compound R-054] | 26 nM
11 | C[C@@H](Cn1c(=O)[nH]/c(=N\c2ccc(Oc3cnccn3)c(F)c2)n(Cc2ccc(Cl)cc2)c1=O)C(=O)O [Compound R-055] | 7 nM
12 | CC(C)(Cn1c(=O)[nH]/c(=N\c2ccc(Oc3cnccn3)c(F)c2)n(Cc2ccc(Cl)cc2)c1=O)C(=O)O [Compound R-056] | 10 nM
13 | C[C@@H](Cn1c(=O)[nH]/c(=N\c2ccc(Oc3cc(F)nc(F)c3)cc2)n(Cc2ccc(Cl)cc2)c1=O)C(=O)O [Compound R-057] | 6 nM
14 | COc1cc(Oc2ccc(/N=c3\[nH]c(=O)n(C[C@H](C)C(=O)O)c(=O)n3Cc3ccc(Cl)cc3)cc2)cc(F)n1 [Compound R-058] | 4 nM
15 | COC(=O)[C@@H](C)Cn1c(=O)[nH]/c(=N\c2ccc(Oc3ncccn3)cc2)n(Cc2ccc(Cl)cc2)c1=O [Compound R-059] | 5 nM
16 | CC(C)(Cn1c(=O)[nH]/c(=N\c2ccc(Oc3ncccn3)cc2)n(Cc2ccc(Cl)cc2)c1=O)C(=O)O [Compound R-060] | 16 nM
17 | COc1nccc(Oc2ccc(/N=c3\[nH]c(=O)n(C[C@H](C)C(=O)O)c(=O)n3Cc3ccc(Cl)cc3)cc2)n1 [Compound R-061] | 7 nM
18 | CCOC(=O)[C@H]1C[C@@H](Oc2ccc(/N=c3\[nH]c(=O)n(CC)c(=O)n3Cc3ccc(Cl)cc3)cc2)C1 [Compound R-062] | 318 nM
19 | CCn1c(=O)[nH]/c(=N\c2ccc(O[C@H]3C[C@@H](C(=O)O)C3)cc2)n(Cc2ccc(Cl)cc2)c1=O [Compound R-063] | 456 nM
20 | CCn1c(=O)[nH]/c(=N\c2ccc(Oc3ccc(C(=O)OC)c(Cl)n3)cc2)n(Cc2ccc(Cl)cc2)c1=O [Compound R-064] | 12 nM

Row | Structure (SMILES) | IC50
21 | CCn1c(=O)[nH]/c(=N\c2ccc(Oc3ccc(C(=O)O)c(Cl)n3)cc2)n(Cc2ccc(Cl)cc2)c1=O [Compound R-066] | 58 nM
22 | CCc1[nH]c2ccc(/N=c3\[nH]c(=O)n(C[C@H](C)C(=O)OC)c(=O)n3Cc3ccc(Cl)cc3)cc2c1C [Compound R-068] | 40 nM
23 | CCc1[nH]c2ccc(/N=c3\[nH]c(=O)n(CC(C)(C)C(=O)OC)c(=O)n3Cc3ccc(Cl)cc3)cc2c1C [Compound R-069] | 51 nM
24 | CC(C)(Cn1c(=O)[nH]/c(=N\c2ccc(Oc3cc(F)nc(F)c3)cc2)n(Cc2ccc(Cl)cc2)c1=O)C(=O)O [Compound R-070] | 7 nM
25 | COc1cc(Oc2ccc(/N=c3\[nH]c(=O)n(CC(C)(C)C(=O)O)c(=O)n3Cc3ccc(Cl)cc3)cc2)cc(F)n1 [Compound R-071] | 6 nM
26 | COC(=O)[C@@H](C)Cn1c(=O)[nH]/c(=N\c2ccc(OC3CCC3)c(F)c2)n(Cc2ccc(Cl)cc2)c1=O [Compound R-072] | 16 nM
27 | COC(=O)C(C)(C)Cn1c(=O)[nH]/c(=N\c2ccc(OC3CCC3)c(F)c2)n(Cc2ccc(Cl)cc2)c1=O [Compound R-073] | 31 nM
28 | CCc1[nH]c2ccc(/N=c3\[nH]c(=O)n(C[C@H](C)C(=O)O)c(=O)n3Cc3ccc(Cl)cc3)cc2c1C [Compound R-074] | 13 nM
29 | CCc1[nH]c2ccc(/N=c3\[nH]c(=O)n(CC(C)(C)C(=O)O)c(=O)n3Cc3ccc(Cl)cc3)cc2c1C [Compound R-075] | 13 nM
30 | C[C@@H](Cn1c(=O)[nH]/c(=N\c2ccc(OC3CCC3)c(F)c2)n(Cc2ccc(Cl)cc2)c1=O)C(=O)O [Compound R-076] | 13 nM
31 | CC(C)(Cn1c(=O)[nH]/c(=N\c2ccc(OC3CCC3)c(F)c2)n(Cc2ccc(Cl)cc2)c1=O)C(=O)O [Compound R-077] | 24 nM
32 | C[C@@H](Cn1c(=O)[nH]/c(=N\c2ccc(Oc3ncccn3)cc2)n(Cc2ccc(Cl)cc2)c1=O)C(=O)O [Compound R-078] | 10 nM
33 | COC(=O)[C@@H](C)Cn1c(=O)[nH]/c(=N\c2ccc(Oc3cncc(Cl)c3)cc2)n(Cc2ccc(Cl)cc2)c1=O [Compound R-079] | 11 nM
34 | COC(=O)C(C)(C)Cn1c(=O)[nH]/c(=N\c2ccc(Oc3cncc(Cl)c3)cc2)n(Cc2ccc(Cl)cc2)c1=O [Compound R-080] | 13 nM
35 | C[C@@H](Cn1c(=O)[nH]/c(=N\c2ccc(Oc3cncc(Cl)c3)cc2)n(Cc2ccc(Cl)cc2)c1=O)C(=O)O [Compound R-081] | 5 nM
36 | CC(C)(Cn1c(=O)[nH]/c(=N\c2ccc(Oc3cncc(Cl)c3)cc2)n(Cc2ccc(Cl)cc2)c1=O)C(=O)O [Compound R-082] | 7 nM
37 | O=c1[nH]/c(=N\c2ccc(Oc3ncccc3F)cc2)n(Cc2ccc(Cl)cc2)c(=O)n1CC1(CO)COC1 [Compound R-083] | 7 nM
38 | O=c1[nH]/c(=N\c2ccc(Oc3ccc(F)cn3)cc2)n(Cc2ccc(Cl)cc2)c(=O)n1CC1(CO)COC1 [Compound R-084] | 6 nM
39 | COc1ccc(Oc2ccc(/N=c3\[nH]c(=O)n(C[C@H](C)C(=O)O)c(=O)n3Cc3ccc(Cl)cc3)cc2)nn1 [Compound R-085] | 6 nM
40 | COC(=O)[C@@H](C)Cn1c(=O)[nH]/c(=N\c2ccc(Oc3ccnc(Cl)c3)cc2)n(Cc2ccc(Cl)cc2)c1=O [Compound R-086] | 7 nM

Row | Structure (SMILES) | IC50
41 | COC(=O)C(C)(C)Cn1c(=O)[nH]/c(=N\c2ccc(Oc3ccnc(Cl)c3)cc2)n(Cc2ccc(Cl)cc2)c1=O [Compound R-087] | 12 nM
42 | C[C@@H](Cn1c(=O)[nH]/c(=N\c2ccc(Oc3ccnc(Cl)c3)cc2)n(Cc2ccc(Cl)cc2)c1=O)C(=O)O [Compound R-088] | 6 nM
43 | CC(C)(Cn1c(=O)[nH]/c(=N\c2ccc(Oc3ccnc(Cl)c3)cc2)n(Cc2ccc(Cl)cc2)c1=O)C(=O)O [Compound R-089] | 7 nM
44 | COC(=O)[C@@H](C)Cn1c(=O)[nH]/c(=N\c2ccc(O[C@H](C)C(F)(F)F)c(F)c2)n(Cc2ccc(Cl)cc2)c1=O [Compound R-090] | 70 nM
45 | COC(=O)C(C)(C)Cn1c(=O)[nH]/c(=N\c2ccc(O[C@H](C)C(F)(F)F)c(F)c2)n(Cc2ccc(Cl)cc2)c1=O [Compound R-091] | 108 nM
46 | CC(C)(Cn1c(=O)[nH]/c(=N\c2ccc(Oc3cc(Cl)ncn3)cc2)n(Cc2ccc(Cl)cc2)c1=O)C(=O)O [Compound R-092] | 10 nM
47 | C[C@@H](Cn1c(=O)[nH]/c(=N\c2ccc(O[C@H](C)C(F)(F)F)c(F)c2)n(Cc2ccc(Cl)cc2)c1=O)C(=O)O [Compound R-093] | 13 nM
48 | C[C@@H](Cn1c(=O)[nH]/c(=N\c2ccc(O[C@H](C)C(F)(F)F)c(O[C@H](C)C(F)(F)F)c2)n(Cc2ccc(Cl)cc2)c1=O)C(=O)O [Compound R-094] | 29 nM
49 | C[C@@H](Oc1ccc(/N=c2\[nH]c(=O)n(CC(C)(C)C(=O)O)c(=O)n2Cc2ccc(Cl)cc2)cc1F)C(F)(F)F [Compound R-095] | 45 nM
50 | C[C@@H](Oc1ccc(/N=c2\[nH]c(=O)n(CC(C)(C)C(=O)O)c(=O)n2Cc2ccc(Cl)cc2)cc1O[C@H](C)C(F)(F)F)C(F)(F)F [Compound R-096] | 156 nM
51 | COC(=O)[C@@H](C)Cn1c(=O)[nH]/c(=N\c2ccc(O[C@H](C)C(F)(F)F)c(C)c2)n(Cc2ccc(Cl)cc2)c1=O [Compound R-097] | 212 nM
52 | Cc1cc(/N=c2\[nH]c(=O)n(C[C@H](C)C(=O)O)c(=O)n2Cc2ccc(Cl)cc2)ccc1O[C@H](C)C(F)(F)F [Compound R-098] | 80 nM
53 | COC(=O)[C@@H](C)Cn1c(=O)[nH]/c(=N\c2ccc(Oc3ccnc(C#N)c3)cc2)n(Cc2ccc(Cl)cc2)c1=O [Compound R-099] | 4 nM
54 | COC(=O)C(C)(C)Cn1c(=O)[nH]/c(=N\c2ccc(Oc3ccnc(C#N)c3)cc2)n(Cc2ccc(Cl)cc2)c1=O [Compound R-100] | 6 nM
55 | COC(=O)[C@@H](C)Cn1c(=O)[nH]/c(=N\c2ccc(N3CCOCC3)c(C)c2)n(Cc2ccc(Cl)cc2)c1=O [Compound R-101] | 201 nM
56 | COC(=O)C(C)(C)Cn1c(=O)[nH]/c(=N\c2ccc(N3CCOCC3)c(C)c2)n(Cc2ccc(Cl)cc2)c1=O [Compound R-102] | 100 nM
57 | COC(=O)C(C)(C)Cn1c(=O)[nH]/c(=N\c2ccc(Oc3ccnc(C(=O)O)c3)cc2)n(Cc2ccc(Cl)cc2)c1=O [Compound R-105] | 7 nM
58 | COC(=O)[C@@H](C)Cn1c(=O)[nH]/c(=N\c2ccc(N3CCOCC3)c(F)c2)n(Cc2ccc(Cl)cc2)c1=O [Compound R-106] | 379 nM
59 | COC(=O)C(C)(C)Cn1c(=O)[nH]/c(=N\c2ccc(N3CCOCC3)c(F)c2)n(Cc2ccc(Cl)cc2)c1=O [Compound R-107] | 217 nM
60 | CC(C)(Cn1c(=O)[nH]/c(=N\c2ccc(Oc3ccnc(C#N)c3)cc2)n(Cc2ccc(Cl)cc2)c1=O)C(=O)O [Compound R-108] | 8 nM
